According to the NIST ThermoML archive (doi:10.1016/j.jct.2005.02.011):

What was measured:
[1] = 298.15 K; 101.33 kPa; Liquid
[2] = excess molar enthalpy (molar enthalpy of mixing); xn = mol fraction of the nth substance listed; conditions: 298.15 K, 101.33 kPa, Liquid
[3] = xn = mol fraction of the nth substance listed; conditions: 298.15 K, 101.33 kPa, Liquid

CCCCOCCO [2-butoxyethan-1-ol]
Conditions | mass density [kg/m3]
[1] | 896.25

COC(F)(F)C(F)(F)C(F)(F)C(F)(F)F [1-methoxy-nonafluorobutane]
Conditions | mass density [kg/m3]
[1] | 1516.5

COC(F)(F)C(F)(F)C(F)(F)C(F)(F)F [1-methoxy-nonafluorobutane] + CCCCOCCO
Conditions | excess molar enthalpy, [2] [kcal/mol] | mass density, [3] [kg/m3]
x1 = 0.02507 | – | 915.04
x1 = 0.05001 | 0.04 | –
x1 = 0.05002 | – | 932.88
x1 = 0.1 | 0.0726 | –
x1 = 0.1001 | – | 969.14
x1 = 0.1499 | – | 1004.19
x1 = 0.1998 | – | 1038.73
x1 = 0.2 | 0.122 | –
x1 = 0.2497 | – | 1072.68
x1 = 0.2995 | – | 1105.83
x1 = 0.3 | 0.157 | –
x1 = 0.3499 | – | 1138.71
x1 = 0.4001 | 0.18 | –
x1 = 0.41 | – | 1176.96
x1 = 0.4499 | – | 1201.93
x1 = 0.5001 | 0.195 | –
x1 = 0.5155 | – | 1242.24
x1 = 0.5499 | – | 1262.86
x1 = 0.5501 | 0.2 | –
x1 = 0.5999 | – | 1292.53
x1 = 0.6001 | 0.202 | –
x1 = 0.65 | – | 1321.64
x1 = 0.6501 | 0.203 | –
x1 = 0.6999 | – | 1350.17
x1 = 0.7 | 0.2 | –
x1 = 0.7499 | – | 1378.23
x1 = 0.75 | 0.194 | –
x1 = 0.8 | 0.184 | 1405.94
x1 = 0.85 | 0.168 | –
x1 = 0.8502 | – | 1433.58
x1 = 0.9 | 0.142 | –
x1 = 0.9002 | – | 1461.09
x1 = 0.95 | 0.1 | 1488.03
x1 = 0.9749 | – | 1501.9
x1 = 0.975 | 0.0629 | –
x1 = 1 | – | 1516.5

CCCCOCCO [2-butoxyethan-1-ol] + COC(F)(F)C(F)(F)C(F)(F)C(F)(F)F
Conditions | mass density [kg/m3]
[3], x2 = 0 | 896.25

COC(F)(F)C(F)(F)C(F)(F)C(F)(F)F [1-methoxy-nonafluorobutane] + COCCOCCOC
Conditions | excess molar enthalpy [kcal/mol] | mass density [kg/m3]
[2], x1 = 0.05001 | 0.0399 | –
[2], x1 = 0.1 | 0.066 | –
[2], x1 = 0.15 | 0.081 | –
[2], x1 = 0.2 | 0.0883 | –
[2], x1 = 0.25 | 0.0919 | –
[2], x1 = 0.3 | 0.0915 | –
[2], x1 = 0.35 | 0.0883 | –
[2], x1 = 0.4001 | 0.0839 | –
[2], x1 = 0.5001 | 0.0705 | –
[2], x1 = 0.6001 | 0.0546 | –
[2], x1 = 0.7 | 0.038 | –
[2], x1 = 0.8 | 0.022 | –
[2], x1 = 0.9 | 0.00844 | –
[2], x1 = 0.95 | 0.00265 | –
[3], x1 = 0.02464 | – | 954.08
[3], x1 = 0.0497 | – | 969.75
[3], x1 = 0.1001 | – | 1001.04
[3], x1 = 0.1498 | – | 1031.72
[3], x1 = 0.1998 | – | 1062.36
[3], x1 = 0.2496 | – | 1092.61
[3], x1 = 0.2994 | – | 1122.54
[3], x1 = 0.3493 | – | 1152.22
[3], x1 = 0.3998 | – | 1181.93
[3], x1 = 0.4496 | – | 1210.92
[3], x1 = 0.4998 | – | 1239.78
[3], x1 = 0.5495 | – | 1268.27
[3], x1 = 0.5999 | – | 1296.83
[3], x1 = 0.6499 | – | 1324.79
[3], x1 = 0.6993 | – | 1352.36
[3], x1 = 0.7495 | – | 1380.12
[3], x1 = 0.7996 | – | 1407.65
[3], x1 = 0.8498 | – | 1435.09
[3], x1 = 0.8997 | – | 1462.11
[3], x1 = 0.9498 | – | 1489.22
[3], x1 = 0.9749 | – | 1502.87
[3], x1 = 1 | – | 1516.5

COCCOCCOC [2,5,8-trioxanonane] + COC(F)(F)C(F)(F)C(F)(F)C(F)(F)F
Conditions | mass density [kg/m3]
[3], x2 = 0 | 938.62

COC(F)(F)C(F)(F)C(F)(F)C(F)(F)F [1-methoxy-nonafluorobutane] + COCCO
Conditions | excess molar enthalpy, [2] [kcal/mol] | mass density, [3] [kg/m3]
x1 = 0.00553 | – | 965.99
x1 = 0.01007 | – | 970.85
x1 = 0.02663 | – | 988.18
x1 = 0.02992 | – | 991.62
x1 = 0.03967 | – | 1001.54
x1 = 0.04976 | – | 1011.78
x1 = 0.05 | 0.0487 | –
x1 = 0.05995 | – | 1021.9
x1 = 0.06979 | – | 1031.53
x1 = 0.07991 | – | 1041.28
x1 = 0.08992 | – | 1050.63
x1 = 0.09992 | – | 1059.88
x1 = 0.1 | 0.0727 | –
x1 = 0.1999 | – | 1144.03
x1 = 0.2 | 0.1 | –
x1 = 0.2999 | – | 1215.05
x1 = 0.3 | 0.119 | –
x1 = 0.4 | – | 1275.68
x1 = 0.4001 | 0.133 | –
x1 = 0.5 | 0.144 | –
x1 = 0.5001 | – | 1328.23
x1 = 0.5501 | 0.149 | –
x1 = 0.5997 | – | 1373.83
x1 = 0.6001 | 0.154 | –
x1 = 0.6501 | 0.153 | –
x1 = 0.7001 | 0.153 | 1414.55
x1 = 0.75 | 0.151 | –
x1 = 0.8001 | 0.146 | –
x1 = 0.8005 | – | 1451
x1 = 0.85 | 0.137 | –
x1 = 0.8997 | – | 1483.83
x1 = 0.9 | 0.121 | –
x1 = 0.9106 | – | 1487.37
x1 = 0.9204 | – | 1490.55
x1 = 0.9304 | – | 1493.65
x1 = 0.9403 | – | 1496.79
x1 = 0.95 | 0.0872 | –
x1 = 0.9508 | – | 1500.13
x1 = 0.9604 | – | 1503.16
x1 = 0.971 | – | 1506.5
x1 = 0.975 | 0.0582 | –
x1 = 0.98 | – | 1509.57
x1 = 0.99 | – | 1512.86
x1 = 0.9948 | – | 1514.59
x1 = 1 | – | 1516.5

COCCOCCO [2-(2-methoxyethoxy)ethanol]
Conditions | mass density [kg/m3]
[1] | 1015.6

COCCO [2-methoxyethan-1-ol] + COC(F)(F)C(F)(F)C(F)(F)C(F)(F)F
Conditions | mass density [kg/m3]
[3], x2 = 0 | 960.01

COCCO [2-methoxyethan-1-ol]
Conditions | mass density [kg/m3]
[1] | 960.01

COCCOCCOC [2,5,8-trioxanonane]
Conditions | mass density [kg/m3]
[1] | 938.62

COC(F)(F)C(F)(F)C(F)(F)C(F)(F)F [1-methoxy-nonafluorobutane] + CCOCCO
Conditions | excess molar enthalpy [kcal/mol] | mass density [kg/m3]
[2], x1 = 0.05001 | 0.0376 | –
[2], x1 = 0.1 | 0.0615 | –
[2], x1 = 0.2 | 0.0937 | –
[2], x1 = 0.3 | 0.117 | –
[2], x1 = 0.4001 | 0.135 | –
[2], x1 = 0.5001 | 0.149 | –
[2], x1 = 0.5501 | 0.153 | –
[2], x1 = 0.6001 | 0.158 | –
[2], x1 = 0.6501 | 0.159 | –
[2], x1 = 0.7 | 0.159 | –
[2], x1 = 0.75 | 0.157 | –
[2], x1 = 0.8 | 0.151 | –
[2], x1 = 0.85 | 0.141 | –
[2], x1 = 0.9 | 0.121 | –
[2], x1 = 0.95 | 0.0866 | –
[2], x1 = 0.9507 | 0.0867 | –
[2], x1 = 0.975 | 0.056 | –
[3], x1 = 0.00503 | – | 929.7
[3], x1 = 0.01079 | – | 934.97
[3], x1 = 0.02102 | – | 944.32
[3], x1 = 0.02987 | – | 952.74
[3], x1 = 0.04002 | – | 961.9
[3], x1 = 0.04998 | – | 970.86
[3], x1 = 0.05985 | – | 979.66
[3], x1 = 0.07003 | – | 988.6
[3], x1 = 0.07976 | – | 997.21
[3], x1 = 0.09179 | – | 1007.4
[3], x1 = 0.09978 | – | 1014.34
[3], x1 = 0.1998 | – | 1094.44
[3], x1 = 0.2999 | – | 1166.16
[3], x1 = 0.3998 | – | 1230.34
[3], x1 = 0.4998 | – | 1288.32
[3], x1 = 0.5999 | – | 1340.92
[3], x1 = 0.6998 | – | 1389.17
[3], x1 = 0.7996 | – | 1433.24
[3], x1 = 0.9003 | – | 1475.39
[3], x1 = 0.9098 | – | 1479.22
[3], x1 = 0.9198 | – | 1482.97
[3], x1 = 0.9304 | – | 1487.24
[3], x1 = 0.9399 | – | 1491.41
[3], x1 = 0.9502 | – | 1495.54
[3], x1 = 0.9587 | – | 1499
[3], x1 = 0.969 | – | 1503.23
[3], x1 = 0.9802 | – | 1507.87
[3], x1 = 0.9901 | – | 1512.09
[3], x1 = 0.9949 | – | 1514.04
[3], x1 = 1 | – | 1516.5

COC(F)(F)C(F)(F)C(F)(F)C(F)(F)F [1-methoxy-nonafluorobutane] + COCCOCCO
Conditions | mass density [kg/m3]
[3], x1 = 1 | 1516.5

COCCOCCO [2-(2-methoxyethoxy)ethanol] + COC(F)(F)C(F)(F)C(F)(F)C(F)(F)F
Conditions | excess molar enthalpy, [2] [kcal/mol] | mass density, [3] [kg/m3]
x2 = 0 | – | 1015.6
x2 = 0.02479 | – | 1031.94
x2 = 0.04975 | – | 1048.37
x2 = 0.05006 | 0.0519 | –
x2 = 0.09963 | – | 1080.8
x2 = 0.1001 | 0.0713 | –
x2 = 0.1498 | – | 1112.38
x2 = 0.1999 | – | 1142.86
x2 = 0.2002 | 0.0873 | –
x2 = 0.2495 | – | 1172.17
x2 = 0.2996 | – | 1200.75
x2 = 0.3003 | 0.0967 | –
x2 = 0.3996 | – | 1254.72
x2 = 0.4003 | 0.102 | –
x2 = 0.4503 | 0.103 | –
x2 = 0.4994 | – | 1304.76
x2 = 0.5003 | 0.103 | –
x2 = 0.5503 | 0.103 | –
x2 = 0.5984 | – | 1351.61
x2 = 0.6003 | 0.103 | –
x2 = 0.6503 | 0.102 | –
x2 = 0.699 | – | 1396.09
x2 = 0.7003 | 0.101 | –
x2 = 0.7499 | – | 1417.68
x2 = 0.7998 | – | 1438.09
x2 = 0.8002 | 0.0953 | –
x2 = 0.85 | – | 1458.09
x2 = 0.8999 | – | 1477.55
x2 = 0.9001 | 0.0773 | –
x2 = 0.9501 | 0.055 | 1496.84
x2 = 0.9749 | – | 1506.46

CCOCCO [2-ethoxyethan-1-ol] + COC(F)(F)C(F)(F)C(F)(F)C(F)(F)F
Conditions | mass density [kg/m3]
[3], x2 = 0 | 924.92

CCOCCO [2-ethoxyethan-1-ol]
Conditions | mass density [kg/m3]
[1] | 924.92
